Data as given in patent US7022333B2 (priority 2001, dated 2006).

System: S. aureus FRI-1187
Format: cell-based, Staphylococcus aureus

In the case of `OCCc1ccccc1` [Phenylethyl alcohol, phenylethyl alcohol], the “amount of exotoxin production from the FRI-1187 culture” value is reported as “significantly reduced” and the “ELISA: TSST-1 ng/OD unit” value (0.5% test compound, S. aureus FRI-1187, Example 5) is reported as “none”.
